A short description of assay [1]: Dose required to inhibit HLF cells by 50 percent. The following applies: Homo sapiens, read-out: LD50.
Another assay has as its system HeLa. Kind of assay: Inhibitory activity against HeLa cell line using 3-(4,5-dimethylthiazol-2-yl)-2,5-diphenyltetrazolium bromide (MTT, Sigma) assay.

“And” between values parts separate entries of the source, which are not always exact repeats. Equal values may be shown once.

As to `NCCNCCNCCN` [TRIENTINE], the CC50 in assay [1] stood at 3100 µM. For the same compound, in the assay on HeLa, the half-inhibitory concentration (IC50) is 74.8 µM and 7.8 µM.

A word on the IC50: it is the concentration that inhibits the measured activity by half. A higher IC50 goes with weaker potency in that assay.

Source of the values: ChEMBL document CHEMBL1145870, “Triethylene tetraamine: a novel telomerase inhibitor” (Bioorg Med Chem Lett, 2003).
